Experimental findings from US20140329797A1, “SUBSTITUTED OXADIAZOLYL PYRIDINONES AND OXADIAZOLYL PYRIDAZINONES AS HIF INHIBITORS” (Bayer Intellectual Property GmbH, priority 2011, published 2014) are described below.

This experiment deals with HCT 116 cells transfected with a luciferase reporter under the control of an HIF-responsive sequence. Nature of the experiment: HIF-luciferase assay. Format: cell-based. The following applies: Homo sapiens; HCT 116 HIF-luciferase reporter cells, hypoxia chamber (1% O2), 24 h; in some cases means of up to four individual determinations. Here is the method: B-1. HIF-Luciferase Assay
HCT 116 cells were transfected in a stable manner with a plasmid which contained a luciferase reporter under the control of an HIF-responsive sequence. These cells were sown in microtitre plates [20000 cells/cavity in RPMI 1640 medium with 10% foetal calf serum (FCS) and 100 μg/ml of hygromycin]. Incubation was carried out overnight under standard conditions (5% CO2, 21% O2, 37° C., moistened). The following morning the cells were incubated with various concentrations of the test substances (0-10 μmol/l) in a hypoxia chamber (1% O2). After 24 h, Bright Glo reagent (Promega, Wisconsin, USA) was added in accordance with the manufacturer's instructions, and after 5 min the luminescence was measured. Cells which were incubated under normoxia served as background controls.
The term IC50 denotes the midpoint of a concentration-inhibition curve. In the case of `Cc1ccc(Cn2cc(-c3nc(-c4ccc(OC(F)(F)F)cc4)no3)ccc2=O)cc1` [Example 1, 1-(4-Methylbenzyl)-5-{3-[4-(trifluoromethoxy)phenyl]-1,2,4-oxadiazol-5-yl}pyridin-2(1H)-one], the concentration for half-maximal inhibition (IC50) was 45 nM.
The value for `Cc1ccc(Cn2cc(-c3nc(-c4ccc(C(C)(C)C(F)(F)F)cc4)no3)ccc2=O)cc1` [Example 2, 1-(4-Methylbenzyl)-5-{3-[4-(1,1,1-trifluoro-2-methylpropan-2-yl)phenyl]-1,2,4-oxadiazol-5-yl}pyridin-2(1H)-one] was 40 nM.
With `CC(C)(c1ccc(-c2noc(-c3ccc(=O)n(Cc4ccc(Cl)cc4)c3)n2)cc1)C(F)(F)F` [Example 4, 1-(4-Chlorobenzyl)-5-{3-[4-(1,1,1-trifluoro-2-methylpropan-2-yl)phenyl]-1,2,4-oxadiazol-5-yl}pyridin-2(1H)-one], the IC50 came out at 50 nM.
As for `Nc1ccc(Cn2cc(-c3nc(-c4ccc(OC(F)(F)F)cc4)no3)ccc2=O)cc1` [Example 7, 1-(4-Aminobenzyl)-5-{3-[4-(trifluoromethoxy)phenyl]-1,2,4-oxadiazol-5-yl}pyridin-2(1H)-one], the figure is 20 nM.
`N#CC1CCN(c2cccc(Cn3cc(-c4nc(-c5ccc(OC(F)(F)F)cc5)no4)ccc3=O)c2)CC1` [Example 9, 1-(3-{[2-oxo-5-{3-[4-(trifluoromethoxy)phenyl]-1,2,4-oxadiazol-5-yl}pyridin-1(2H)-yl]methyl}phenyl)piperidine-4-carbonitrile] registered an IC50 of 1.5 nM.
For `N#CC1CCN(c2cccc(Cn3cc(-c4nc(-c5ccc(SC(F)(F)F)cc5)no4)ccc3=O)c2)CC1` [Example 10, 1-(3-{[2-oxo-5-(3-{4-[(trifluoromethyl)sulphanyl]phenyl}-1,2,4-oxadiazol-5-yl)pyridin-1(2H)-yl]methyl}phenyl)piperidine-4-carbonitrile], inhibition was half-maximal at 1 nM (IC50).
Compound `CC(C)(c1ccc(-c2noc(-c3ccc(=O)n(Cc4cccc(N5CCC(C#N)CC5)c4)c3)n2)cc1)C(F)(F)F` [Example 11, 1-(3-{[2-oxo-5-{3-[4-(1,1,1-trifluoro-2-methylpropan-2-yl)phenyl]-1,2,4-oxadiazol-5-yl}pyridin-1(2H)-yl]methyl}phenyl)piperidine-4-carbonitrile] displayed an IC50 of 2 nM.
As for `N#CC1CCN(c2cccc(Cn3cc(-c4nc(-c5ccc(C6(C(F)(F)F)CC6)cc5)no4)ccc3=O)c2)CC1` [Example 12, 1-(3-{[2-oxo-5-(3-{4-[1-(trifluoromethyl)cyclopropyl]phenyl}-1,2,4-oxadiazol-5-yl)pyridin-1(2H)-yl]methyl}phenyl)piperidine-4-carbonitrile], the figure is 1.5 nM.
In the case of `O=c1ccc(-c2nc(-c3ccc(OC(F)(F)F)cc3)no2)cn1Cc1cccc(N2CC(O)C2)c1` [Example 13, 1-[3-(3-Hydroxyazetidin-1-yl)benzyl]-5-{3-[4-(trifluoromethoxy)phenyl]-1,2,4-oxadiazol-5-yl}pyridin-2(1H)-one], the IC50 is 2 nM.
The value for `O=c1ccc(-c2nc(-c3ccc(SC(F)(F)F)cc3)no2)cn1Cc1cccc(N2CC(O)C2)c1` [Example 14, 1-[3-(3-Hydroxyazetidin-1-yl)benzyl]-5-(3-{4-[(trifluoromethyl)sulphanyl]phenyl}-1,2,4-oxadiazol-5-yl)pyridin-2(1H)-one] was 2 nM.
For the compound `CC(C)(c1ccc(-c2noc(-c3ccc(=O)n(Cc4cccc(N5CC(O)C5)c4)c3)n2)cc1)C(F)(F)F` [Example 15, 1-[3-(3-Hydroxyazetidin-1-yl)benzyl]-5-{3-[4-(1,1,1-trifluoro-2-methylpropan-2-yl)phenyl]-1,2,4-oxadiazol-5-yl}pyridin-2(1H)-one], the IC50 is 2 nM.
For the compound `O=c1ccc(-c2nc(-c3ccc(C4(C(F)(F)F)CC4)cc3)no2)cn1Cc1cccc(N2CC(O)C2)c1` [Example 16, 1-[3-(3-Hydroxyazetidin-1-yl)benzyl]-5-(3-{4-[1-(trifluoromethyl)cyclopropyl]phenyl}-1,2,4-oxadiazol-5-yl)pyridin-2(1H)-one], the IC50 worked out at 5 nM.
`COC(=O)c1cccc(Cn2cc(-c3nc(-c4ccc(C(C)(C)C(F)(F)F)cc4)no3)ccc2=O)c1` [Example 19, Methyl 3-{[2-oxo-5-{3-[4-(1,1,1-trifluoro-2-methylpropan-2-yl)phenyl]-1,2,4-oxadiazol-5-yl}pyridin-1(2H)-yl]methyl}benzoate]: the IC50 came to 30 nM.
For the compound `CNC(=O)c1cccc(Cn2cc(-c3nc(-c4ccc(C(C)(C)C(F)(F)F)cc4)no3)ccc2=O)c1` [Example 21, N-Methyl-3-{[2-oxo-5-{3-[4-(1,1,1-trifluoro-2-methylpropan-2-yl)phenyl]-1,2,4-oxadiazol-5-yl}pyridin-1(2H)-yl]methyl}benzamide], the IC50 came out at 30 nM.
`CN(C)C(=O)c1cccc(Cn2cc(-c3nc(-c4ccc(OC(F)(F)F)cc4)no3)ccc2=O)c1` [Example 22, N,N-Dimethyl-3-{[2-oxo-5-{3-[4-(trifluoromethoxy)phenyl]-1,2,4-oxadiazol-5-yl}pyridin-1(2H)-yl]methyl}benzamide] registered an IC50 of 20 nM.
Take `CN(C)C(=O)c1cccc(Cn2cc(-c3nc(-c4ccc(C(C)(C)C(F)(F)F)cc4)no3)ccc2=O)c1` [Example 23, N,N-Dimethyl-3-{[2-oxo-5-{3-[4-(1,1,1-trifluoro-2-methylpropan-2-yl)phenyl]-1,2,4-oxadiazol-5-yl}pyridin-1(2H)-yl]methyl}benzamide]: inhibition was half-maximal at 15 nM (IC50).
In turn, `CC(C)(c1ccc(-c2noc(-c3ccc(=O)n(Cc4cccc(C(=O)N5CCC5)c4)c3)n2)cc1)C(F)(F)F` [Example 25, 1-[3-(Azetidin-1-ylcarbonyl)benzyl]-5-{3-[4-(1,1,1-trifluoro-2-methylpropan-2-yl)phenyl]-1,2,4-oxadiazol-5-yl}pyridin-2(1H)-one] gave an IC50 of 5 nM.
Compound `CC(C)(c1ccc(-c2noc(-c3ccc(=O)n(Cc4cccc(C(=O)N5CC(O)C5)c4)c3)n2)cc1)C(F)(F)F` [Example 27, 1-{3-[(3-Hydroxyazetidin-1-yl)carbonyl]benzyl}-5-{3-[4-(1,1,1-trifluoro-2-methylpropan-2-yl)phenyl]-1,2,4-oxadiazol-5-yl}pyridin-2(1H)-one] registered an IC50 of 1 nM.
In the case of `O=C(c1cccc(Cn2cc(-c3nc(-c4ccc(OC(F)(F)F)cc4)no3)ccc2=O)c1)N1CCCC1` [Example 28, 1-[3-(Pyrrolidin-1-ylcarbonyl)benzyl]-5-{3-[4-(trifluoromethoxy)phenyl]-1,2,4-oxadiazol-5-yl}pyridin-2(1H)-one], it took 2 nM to reach half-maximal inhibition (IC50).
`O=C(c1cccc(Cn2cc(-c3nc(-c4ccc(OC(F)(F)F)cc4)no3)ccc2=O)c1)N1CCCO1` [Example 30, 1-[3-(1,2-Oxazolidin-2-ylcarbonyl)benzyl]-5-{3-[4-(trifluoromethoxy)phenyl]-1,2,4-oxadiazol-5-yl}pyridin-2(1H)-one] displayed an IC50 of 2 nM.
`O=C(c1cccc(Cn2cc(-c3nc(-c4ccc(OC(F)(F)F)cc4)no3)ccc2=O)c1)N1CCC(O)CC1` [Example 32, 1-{3-[(4-Hydroxypiperidin-1-yl)carbonyl]benzyl}-5-{3-[4-(trifluoromethoxy)phenyl]-1,2,4-oxadiazol-5-yl}pyridin-2(1H)-one] gave an IC50 of 2 nM.
